The values below come from US8173689B2 (Novartis AG, priority 2006, dated 2012).

The structures appear in SMILES notation. Like-named read-outs stand apart in the source and are kept apart here.

One assay deals with T1, kinase domain of cKIT (Homo sapiens, UniProt P10721).
T1 construct: The kinase domain of cKIT was assayed in 50 mM Hepes; purchased Upstate 14-559
As to the kind of experiment: Inhibition of cKIT kinase signaling in an in vitro biochemical assay (alphascreen). The following applies: tested at about 1 μM, read-out: cKit percent inhibition.

In a further assay the target is T2, kinase domain of PDGFRβ (Homo sapiens, UniProt P09619).
T2 construct: The kinase domain of PDGFRβ was assayed in 50 mM Hepes; purchased Invitrogen P3082
As to the kind of experiment: Inhibition of PDGFRb kinase signaling in an in vitro biochemical assay (alphascreen). The following applies: tested at about 1 μM, read-out: PDGFRβ percent inhibition.

Assay [1] concerns the target T3, cytoplasmic domain of the human CSF-1R (Homo sapiens, UniProt P07333).
T3 construct: Recombinant protein corresponding to the cytoplasmic domain of the human CSF-1R; purchased Invitrogen Corporation, Carlsbad, Calif; PV3249
T3 sequence (P07333 539-972 limits assumed): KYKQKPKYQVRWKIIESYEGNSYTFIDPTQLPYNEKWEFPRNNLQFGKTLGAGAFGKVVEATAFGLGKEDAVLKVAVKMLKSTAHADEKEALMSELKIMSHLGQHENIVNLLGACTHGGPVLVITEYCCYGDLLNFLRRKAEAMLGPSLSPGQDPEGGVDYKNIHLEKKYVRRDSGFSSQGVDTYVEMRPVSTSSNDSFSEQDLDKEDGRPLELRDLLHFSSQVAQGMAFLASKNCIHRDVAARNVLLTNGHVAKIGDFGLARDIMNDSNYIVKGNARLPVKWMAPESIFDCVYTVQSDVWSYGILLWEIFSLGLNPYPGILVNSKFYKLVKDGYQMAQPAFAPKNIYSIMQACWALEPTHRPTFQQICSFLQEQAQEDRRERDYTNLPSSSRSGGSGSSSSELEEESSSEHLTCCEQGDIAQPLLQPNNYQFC
As to the kind of experiment: In vitro kinase assay for colony stimulating factor-1 receptor (AlphaScreen). In kind it is biochemical. The following applies: tested at about 1 μM, read-out: CSF-1R percent inhibition. Put shortly: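 Test compounds, serially diluted threefold starting at 25 μM, were mixed with Hepes buffer (pH 7.5, Mg2+/Mn2+, DTT, BSA, Tween 80) containing 1 μM ATP. Recombinant kinase was present at 4 nM. After stopping, beads were added and plates were read the next day by AlphaScreen.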

The target of assay [2] is T4, full-length human CSF-1R receptor (Homo sapiens, UniProt P07333).
T4 construct: transfected with the full-length human CSF-1R receptor cloned in house; expressed in transfected cells; host or cells: HEK293H (Invitrogen Cat. #11631017)
As to the kind of experiment: In vitro inhibition of CSF-1R receptor tyrosine phosphorylation in transfected HEK293H cells stimulated with MCSF. The format is cell-based. The following applies: HEK293-H, tested at about 1 μM, read-out: pCSF1R percent inhibition. Here is the method: The lysate was then transferred to total CSF-1R antibody coated 96-well plates that had already been blocked with 3% Blocker A from Mesoscale discovery (MSD) for 2 hours and washed afterwards. Lysates were incubated overnight at 4° C. and the plates were then washed 4× with MSD Tris Wash Buffer. […] The plates were read on the Sector 6000 instrument (MSD). Raw data was imported in Abase and EC50s calculated with XL-fit data analysis software.

In assay [3] the test system is MNFS60 (murine AML cells). As to the kind of experiment: Cell viability assay in MCSF dependent MNFS60 cells (Cell Titer Glo). The format is cell-based. The following applies: Mus musculus, tested at about 1 μM, read-out: M-NFS-60 CP percent inhibition. Put shortly:
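Three-fold serial compound dilutions, prepared in DMSO at 500× the final level, were applied alongside MCSF (final 10 ng/ml). Incubation lasted 72 hrs (37° C., 5% CO2) before CellTiter-Glo addition. Triplicate points were curve-fitted for EC50.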

T2 sequence (P09619 600-962 limits assumed): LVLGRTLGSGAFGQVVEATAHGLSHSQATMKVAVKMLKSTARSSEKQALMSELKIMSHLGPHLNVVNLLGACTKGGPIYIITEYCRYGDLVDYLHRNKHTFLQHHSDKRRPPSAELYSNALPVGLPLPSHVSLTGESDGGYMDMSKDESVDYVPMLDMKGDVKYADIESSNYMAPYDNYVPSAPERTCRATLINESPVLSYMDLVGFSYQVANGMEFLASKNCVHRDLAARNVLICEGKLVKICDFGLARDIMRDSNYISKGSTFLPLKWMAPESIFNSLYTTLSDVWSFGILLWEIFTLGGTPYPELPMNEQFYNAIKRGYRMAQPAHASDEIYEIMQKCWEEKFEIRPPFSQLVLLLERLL
T1 sequence (P10721 589-937 limits assumed): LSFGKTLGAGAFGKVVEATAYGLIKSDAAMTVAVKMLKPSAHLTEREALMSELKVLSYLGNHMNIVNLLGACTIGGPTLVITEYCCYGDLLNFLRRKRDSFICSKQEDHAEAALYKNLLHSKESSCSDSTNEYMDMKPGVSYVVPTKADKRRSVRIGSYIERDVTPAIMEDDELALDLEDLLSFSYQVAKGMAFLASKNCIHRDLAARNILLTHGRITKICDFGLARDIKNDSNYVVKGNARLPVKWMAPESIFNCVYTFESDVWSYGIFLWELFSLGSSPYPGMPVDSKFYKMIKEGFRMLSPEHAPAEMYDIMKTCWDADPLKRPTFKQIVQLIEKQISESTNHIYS
T4 sequence (P07333 20-972): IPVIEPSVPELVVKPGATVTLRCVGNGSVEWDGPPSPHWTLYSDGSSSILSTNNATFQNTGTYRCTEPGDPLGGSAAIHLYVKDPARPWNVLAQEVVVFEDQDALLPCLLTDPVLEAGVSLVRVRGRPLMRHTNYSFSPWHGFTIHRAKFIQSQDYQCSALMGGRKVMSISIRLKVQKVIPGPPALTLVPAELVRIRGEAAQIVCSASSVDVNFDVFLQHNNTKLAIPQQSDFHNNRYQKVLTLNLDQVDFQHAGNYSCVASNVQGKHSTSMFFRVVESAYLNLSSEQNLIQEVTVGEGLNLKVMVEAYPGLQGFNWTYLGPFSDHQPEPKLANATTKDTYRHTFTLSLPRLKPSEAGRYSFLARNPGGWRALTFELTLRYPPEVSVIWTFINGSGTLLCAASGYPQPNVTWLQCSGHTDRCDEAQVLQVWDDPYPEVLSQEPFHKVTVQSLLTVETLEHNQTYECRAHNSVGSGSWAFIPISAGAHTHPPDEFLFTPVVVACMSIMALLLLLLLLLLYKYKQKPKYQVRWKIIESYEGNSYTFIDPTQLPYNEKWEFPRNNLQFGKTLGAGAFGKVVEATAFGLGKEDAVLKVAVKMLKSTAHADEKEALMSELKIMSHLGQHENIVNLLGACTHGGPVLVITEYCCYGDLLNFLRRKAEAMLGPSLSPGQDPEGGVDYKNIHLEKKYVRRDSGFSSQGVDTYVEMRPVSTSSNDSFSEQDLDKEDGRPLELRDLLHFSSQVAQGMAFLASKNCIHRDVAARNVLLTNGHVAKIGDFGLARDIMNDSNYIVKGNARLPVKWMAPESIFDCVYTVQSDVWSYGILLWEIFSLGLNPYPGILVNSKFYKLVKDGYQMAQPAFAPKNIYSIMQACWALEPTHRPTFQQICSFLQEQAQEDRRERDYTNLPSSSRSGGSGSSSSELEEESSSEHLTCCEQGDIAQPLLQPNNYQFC

For the molecule `C[C@H](Nc1nc2ccc(Oc3ccnc(-c4ccncc4)c3)cc2s1)C1CCCCC1` [Example 275, (S)-6-(2,4'-bipyridin-4-yloxy)-N-(1-cyclohexylethyl)benzo[d] thiazol-2-amine], the inhibition at 1 µM on kinase domain of cKIT (compounds of Table 3) is 45%; at kinase domain of PDGFRβ (compounds of Table 3) it was 16%; in assay [1] (compounds of Table 3), 100%; in assay [2] (compounds of Table 3), 94%; in assay [3] (compounds of Table 3), 89%.
The matching figures for `C[C@H](Nc1nc2ccc(Oc3ccnc(-c4ccc(N)nc4)c3)cc2s1)C1CCCCC1` [Example 276, (S)-6-(6'-amino-2,3'-bipyridin-4-yloxy)-N-(1-cyclohexylethyl)benzo[d] thiazol-2-amine]: 39%, 26%, 100%, 97% and 100%.
The matching figures for `C[C@H](Nc1nc2ccc(Oc3ccnc(-c4cnc5[nH]ccc5c4)c3)cc2s1)C1CCCCC1` [Example 278, (S)-6-(2-(1H-pyrrolo[2,3-b]pyridin-5-yl)pyridin-4-yloxy)-N-(1-cyclohexylethyl)benzo[d] thiazol-2-amine]: 38%, 12%, 100%, 75% and 82%.
On to `COc1ccc(-c2cc(Oc3ccc4nc(N[C@@H](C)C5CCCCC5)sc4c3)ccn2)cn1` [Example 279, (S)-N-(1-cyclohexylethyl)-6-(6'-methoxy-2,3'-bipyridin-4-yloxy)benzo[d]thiazol-2-amine], for which the inhibition at 1 µM amounted to 30% at kinase domain of cKIT (compounds of Table 3); 7% on kinase domain of PDGFRβ (compounds of Table 3); 100% in assay [1] (compounds of Table 3); 59% in assay [2] (compounds of Table 3); 60% in assay [3] (compounds of Table 3).
For `O[C@@H]1CCCC[C@H]1Nc1nc2ccc(Oc3ccnc(-c4ccncc4)c3)cc2s1` [Example 280, (1R,2R)-2-(6-(2,4'-bipyridin-4-yloxy)benzo[d]thiazol-2-ylamino)cyclohexanol], the inhibition at 1 µM is 11% at kinase domain of cKIT (compounds of Table 3); 22% on kinase domain of PDGFRβ (compounds of Table 3); 100% in assay [1] (compounds of Table 3); 65% in assay [2] (compounds of Table 3); 100% in assay [3] (compounds of Table 3).
Take `CCCn1cc(-c2cc(Oc3ccc4nc(N[C@@H]5CCCC[C@H]5O)sc4c3)ccn2)cn1` [Example 281, (1R,2R)-2-(6-(2-(1-propyl-1H-pyrazol-4-yl)pyridin-4-yloxy)benzo[d]thiazol-2-ylamino)cyclohexanol]: the inhibition at 1 µM at kinase domain of cKIT (compounds of Table 3) worked out at 22%; on kinase domain of PDGFRβ (compounds of Table 3), 36%; in assay [1] (compounds of Table 3) it was 100%; in assay [2] (compounds of Table 3) it was 96%; in assay [3] (compounds of Table 3), 100%.
With `CN(C)c1ncc(-c2cc(Oc3ccc4nc(N[C@@H]5CCCC[C@H]5O)sc4c3)ccn2)cn1` [Example 286, (1R,2R)-2-(6-(2-(2-(dimethylamino)pyrimidin-5-yl)pyridin-4-yloxy)benzo[d]thiazol-2-ylamino)cyclohexanol], the inhibition at 1 µM on kinase domain of cKIT (compounds of Table 3) stood at 23%; at kinase domain of PDGFRβ (compounds of Table 3), 0%; in assay [1] (compounds of Table 3), 100%; in assay [2] (compounds of Table 3) it was 94%; in assay [3] (compounds of Table 3), 71%.
Consider `CNC(=O)c1cc(Oc2ccc3nc(NC4CCCC(O)C4)sc3c2)ccn1` (centres unmarked) [Example 293, 4-(2-(3-hydroxycyclohexylamino)benzo[d]thiazol-6-yloxy)-N-methylpicolinamide], for which the inhibition at 1 µM on kinase domain of cKIT (compounds of Table 3) was 22%; at kinase domain of PDGFRβ (compounds of Table 3), 0%; in assay [1] (compounds of Table 3) it was 100%; in assay [2] (compounds of Table 3) it was 82%; in assay [3] (compounds of Table 3) it was 67%.
Turning to `CNC(=O)c1cc(Oc2ccc3nc(N[C@@H]4CCCC[C@H]4N)sc3c2)ccn1` [Example 297, 4-(2-((1R,2R)-2-aminocyclohexylamino)benzo[d]thiazol-6-yloxy)-N-methylpicolinamide], the inhibition at 1 µM at kinase domain of cKIT (compounds of Table 3) was found to be 0%; at kinase domain of PDGFRβ (compounds of Table 3), 9%; in assay [1] (compounds of Table 3), 98%; in assay [2] (compounds of Table 3) it was 90%; in assay [3] (compounds of Table 3), 42%.
The matching figures for `CNC(=O)c1cc(Oc2ccc3nc(N[C@@H]4CCCC[C@H]4CO)sc3c2)ccn1` [Example 299, 4-(2-((1R,2R)-2-(hydroxymethyl)cyclohexyl-amino)benzo[d]thiazol-6-yloxy)-N-methylpicolinamide]: 32%, 57%, 100%, 95% and 94%.
As for `CNC(=O)c1cc(Oc2ccc3nc(NCC4CCCN(S(C)(=O)=O)C4)sc3c2)ccn1` (centres unmarked) [Example 308, N-methyl-4-(2-((1-(methylsulfonyl)piperidin-3-yl)methylamino)benzo[d]thiazol-6-yloxy)picolinamide], the inhibition at 1 µM on kinase domain of cKIT is 51%; at kinase domain of PDGFRβ, 27%; in assay [1], 100%; in assay [2] (HEK293H cells), 81%; in assay [3] (MCSF dependent MNFS60 cells) it was 54%.
Regarding `CNC(=O)c1cc(Oc2ccc3nc(NCCc4ccncc4)sc3c2)ccn1` [Example 316, N-methyl-4-(2-(2-(pyridin-4-yl)ethylamino)benzo[d]thiazol-6-yloxy)picolinamide], the inhibition at 1 µM on kinase domain of cKIT was found to be 8%; on kinase domain of PDGFRβ it was 12%; in assay [1], 99%; in assay [2] (HEK293H cells), 98%; in assay [3] (MCSF dependent MNFS60 cells) it was 41%.
The matching figures for `CNC(=O)c1cc(Oc2ccc3nc(NCCc4ccccc4OC)sc3c2)ccn1` [Example 317, 4-(2-(2-methoxyphenylethylamino)benzo[d]thiazol-6-yloxy)-N-methylpicolinamide]: 70%, 12%, 100%, 95% and 50%.
Take `CNC(=O)c1cc(Oc2ccc3nc(N[C@H]4C[C@H]4c4ccccc4)sc3c2)ccn1` [Example 318, N-methyl-4-(2-((1S,2S)-2-phenylcyclopropylamino)benzo[d]thiazol-6-yloxy)picolinamide]: the inhibition at 1 µM came to 47% on kinase domain of cKIT; 13% at kinase domain of PDGFRβ; 100% in assay [1]; 78% in assay [2] (HEK293H cells); 24% in assay [3] (MCSF dependent MNFS60 cells).
Regarding `CNC(=O)c1cc(Oc2ccc3nc(NCCc4ccccc4Cl)sc3c2)ccn1` [Example 319, 4-(2-(2-chlorophenylethylamino)benzo[d]thiazol-6-yloxy)-N-methylpicolinamide], the inhibition at 1 µM is 93% at kinase domain of cKIT; 24% at kinase domain of PDGFRβ; 100% in assay [1]; 91% in assay [2] (HEK293H cells); 61% in assay [3] (MCSF dependent MNFS60 cells).
As to `CNC(=O)c1cc(Oc2ccc3nc(N[C@H]4c5ccccc5C[C@H]4O)sc3c2)ccn1` [Example 321, 4-(2-((1S,2R)-2-hydroxy-2,3-dihydro-1H-inden-1-ylamino)benzo[d]thiazol-6-yloxy)-N-methylpicolinamide], the inhibition at 1 µM at kinase domain of cKIT was 52%; on kinase domain of PDGFRβ, 41%; in assay [1], 100%; in assay [2] (HEK293H cells), 97%; in assay [3] (MCSF dependent MNFS60 cells), 82%.
